Source: patent US6355799B1, “Substituted benzene compounds, process for their preparation, and herbicidal and defoliant compositions containing them” (ISK Americas Incorporated, priority 1997, dated 2002)

Assays:
Assay type in all cases: in vivo
[1] = test system: upland rice (Oryza sp., var. Tebonnet, RICE); test: Post-emerge test, crop safety; details: post-emerge, 14 days after application, rating scale 0-100
How it was run: (§1)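 Visual ratings on a 0-100 scale (0 no damage, 100 all plants dead) were taken at 14 days after treatment. Rates of 15-1000 g ai/ha in acetone, 187 l/ha, were sprayed onto soil one day after planting (pre-emerge) or onto 2-3 leaf plants with 0.25% v/v surfactant (post-emerge).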

[2] = test system: field corn (Zea mays L., var. Dekalb 535, CORN); test: Post-emerge test, crop safety; details: post-emerge, 14 days after application, rating scale 0-100
How it was run: as §1

[3] = test system: large crabgrass (Digitaria sanguinalis, DIGSA); test: Post-emerge test, greenhouse herbicide activity screening; details: post-emerge, 14 days after application, rating scale 0-100
How it was run: (§2)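 Rating: 0–100 visual injury, 14 DAA. Application: acetone, 187 l/ha, 15–1000 g ai/ha, flat-fan track sprayer with nozzle 40–45 cm above soil or canopy. Post-emerge runs used 0.25% v/v surfactant on 2–3 leaf plants.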

[4] = test system: lambsquarters (Chenopodium album, CHEAL); test: as above; details: post-emerge, 14 days after application, rating scale 0-100
How it was run: as §2

[5] = test system: green foxtail (Setaria viridis, SETVI); test: as above; details: post-emerge, 14 days after application, rating scale 0-100
How it was run: as §2

[6] = test system: redroot pigweed (Amaranthus retroflexus, AMARE); test: as above; details: post-emerge, 14 days after application
How it was run: as §2

[7] = test system: johnsongrass (Sorghum halepense, SORHA); test: as above; details: post-emerge, 14 days after application, rating scale 0-100
How it was run: as §2

[8] = test system: ivyleaf morningglory (Ipomoea hederacea, IPOHE); test: as above; details: post-emerge, 14 days after application, rating scale 0-100
How it was run: as §2

[9] = test system: sicklepod (Cassia obtusifolia, CASOB); test: as above; details: post-emerge, 14 days after application, rating scale 0-100
How it was run: as §2

[10] = test system: velvetleaf (Abutilon theophrasti, ABUTH); test: as above; details: post-emerge, 14 days after application, rating scale 0-100
How it was run: as §2

[11] = test system: upland rice (Oryza sp., var. Tebonnet, RICE); test: Pre-emerge test, crop safety; details: crop damage rating 0-100, 14 days after application
How it was run: as §1

[12] = test system: field corn (Zea mays L., var. Dekalb 535, CORN); test: Pre-emerge test, crop safety; details: crop damage rating 0-100, 14 days after application
How it was run: as §1

[13] = test system: large crabgrass (Digitaria sanguinalis, DIGSA); test: Pre-emerge test, greenhouse herbicide activity screening; details: phytotoxicity rating 0-100, 14 days after application
How it was run: as §1

[14] = test system: lambsquarters (Chenopodium album, CHEAL); test: as above; details: phytotoxicity rating 0-100, 14 days after application
How it was run: as §1

[15] = test system: green foxtail (Setaria viridis, SETVI); test: as above; details: phytotoxicity rating 0-100, 14 days after application
How it was run: as §1

[16] = test system: johnsongrass (Sorghum halepense, SORHA); test: as above; details: phytotoxicity rating 0-100, 14 days after application
How it was run: as §1

[17] = test system: ivyleaf morningglory (Ipomoea hederacea, IPOHE); test: as above; details: phytotoxicity rating 0-100, 14 days after application
How it was run: as §1

[18] = test system: barnyardgrass (Echinochloa crus-galli, ECHCG); test: as above; details: phytotoxicity rating 0-100, 14 days after application
How it was run: as §1

[19] = test system: sicklepod (Cassia obtusifolia, CASOB); test: as above; details: phytotoxicity rating 0-100, 14 days after application
How it was run: as §1

[20] = test system: velvetleaf (Abutilon theophrasti, ABUTH); test: as above; details: phytotoxicity rating 0-100, 14 days after application
How it was run: as §1

[21] = test system: redroot pigweed (Amaranthus retroflexus, AMARE); test: as above; details: phytotoxicity rating 0-100, 14 days after application
How it was run: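 Compounds in acetone were track-sprayed at 15-1000 g ai/ha (187 l/ha) on sandy loam pots: pre-emerge one day after seeding, post-emerge at 2-3 leaf stage with 0.25% v/v non-ionic surfactant. Phytotoxicity was rated 14 days later on a 0 (no damage) to 100 (complete death) scale.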

[22] = 63 g ai/ha, rating scale 0-100 (0 no damage, 100 complete death)
[23] = 250 g ai/ha, rating scale 0-100

COc1c(Cl)cc(F)c(-n2c(=O)cc(C(F)(F)F)n(C)c2=O)c1NC(=O)OCc1c(Cl)cccc1Cl [4-24]
phytotoxicity rating RICE (crop damage) ([1]; 63 g ai/ha): 20 | phytotoxicity rating RICE (crop damage) ([1]; 250 g ai/ha): 45 | phytotoxicity rating CORN (crop damage) ([2]; 63 g ai/ha): 35 | phytotoxicity rating CORN (crop damage) ([2]; 250 g ai/ha): 70 | phytotoxicity rating DIGSA ([3]; 63 g ai/ha): 40 | phytotoxicity rating DIGSA ([3]; 250 g ai/ha): 50 | phytotoxicity rating CHEAL ([4]; 63 g ai/ha): 100 | phytotoxicity rating CHEAL ([4]; 250 g ai/ha): 100 | phytotoxicity rating SETVI ([5]; 63 g ai/ha): 50 | phytotoxicity rating SETVI ([5]; 250 g ai/ha): 80 | phytotoxicity rating AMARE [6, 22]: 100 | phytotoxicity rating AMARE [6, 23]: 100 | phytotoxicity rating SORHA ([7]; 63 g ai/ha): 40 | phytotoxicity rating SORHA ([7]; 250 g ai/ha): 60 | phytotoxicity rating IPOHE ([8]; 63 g ai/ha): 100 | phytotoxicity rating IPOHE ([8]; 250 g ai/ha): 100 | phytotoxicity rating CASOB ([9]; 63 g ai/ha): 70 | phytotoxicity rating CASOB ([9]; 250 g ai/ha): 100 | phytotoxicity rating ABUTH ([10]; 63 g ai/ha): 100 | phytotoxicity rating ABUTH ([10]; 250 g ai/ha): 100 | Pre-emerge Herbicidal Activity RICE ([11]; 63 g ai/ha): 10 | Pre-emerge Herbicidal Activity RICE ([11]; 250 g ai/ha): 50 | Pre-emerge Herbicidal Activity CORN ([12]; 63 g ai/ha): 0 | Pre-emerge Herbicidal Activity CORN ([12]; 250 g ai/ha): 5 | Pre-emerge Herbicidal Activity DIGSA ([13]; 63 g ai/ha): 30 | Pre-emerge Herbicidal Activity DIGSA ([13]; 250 g ai/ha): 70 | Pre-emerge Herbicidal Activity CHEAL ([14]; 63 g ai/ha): 100 | Pre-emerge Herbicidal Activity CHEAL ([14]; 250 g ai/ha): 100 | Pre-emerge Herbicidal Activity SETVI ([15]; 63 g ai/ha): 90 | Pre-emerge Herbicidal Activity SETVI ([15]; 250 g ai/ha): 100 | Pre-emerge Herbicidal Activity SORHA ([16]; 63 g ai/ha): 10 | Pre-emerge Herbicidal Activity SORHA ([16]; 250 g ai/ha): 40 | Pre-emerge Herbicidal Activity IPOHE ([17]; 63 g ai/ha): 20 | Pre-emerge Herbicidal Activity IPOHE ([17]; 250 g ai/ha): 30 | Pre-emerge Herbicidal Activity ECHCG ([18]; 63 g ai/ha): 10 | Pre-emerge Herbicidal Activity ECHCG ([18]; 250 g ai/ha): 50 | Pre-emerge Herbicidal Activity CASOB ([19]; 63 g ai/ha): 0 | Pre-emerge Herbicidal Activity CASOB ([19]; 250 g ai/ha): 80 | Pre-emerge Herbicidal Activity ABUTH ([20]; 63 g ai/ha): 50 | Pre-emerge Herbicidal Activity ABUTH ([20]; 250 g ai/ha): 100 | Pre-emerge Herbicidal Activity AMARE ([21]; 63 g ai/ha): 100 | Pre-emerge Herbicidal Activity AMARE ([21]; 250 g ai/ha): 100

COc1c(Cl)cc(F)c(-n2c(=O)cc(C(F)(F)F)n(C)c2=O)c1NC(=O)Oc1c(C)cc(C)cc1C [4-25]
phytotoxicity rating RICE (crop damage) ([1]; 63 g ai/ha): 0 | phytotoxicity rating RICE (crop damage) ([1]; 250 g ai/ha): 20 | phytotoxicity rating CORN (crop damage) ([2]; 63 g ai/ha): 5 | phytotoxicity rating CORN (crop damage) ([2]; 250 g ai/ha): 15 | phytotoxicity rating DIGSA ([3]; 63 g ai/ha): 0 | phytotoxicity rating DIGSA ([3]; 250 g ai/ha): 0 | phytotoxicity rating CHEAL ([4]; 63 g ai/ha): 75 | phytotoxicity rating CHEAL ([4]; 250 g ai/ha): 85 | phytotoxicity rating SETVI ([5]; 63 g ai/ha): 20 | phytotoxicity rating SETVI ([5]; 250 g ai/ha): 30 | phytotoxicity rating AMARE [6, 22]: 70 | phytotoxicity rating AMARE [6, 23]: 100 | phytotoxicity rating SORHA ([7]; 63 g ai/ha): 0 | phytotoxicity rating SORHA ([7]; 250 g ai/ha): 10 | phytotoxicity rating IPOHE ([8]; 63 g ai/ha): 40 | phytotoxicity rating IPOHE ([8]; 250 g ai/ha): 60 | phytotoxicity rating CASOB ([9]; 63 g ai/ha): 20 | phytotoxicity rating CASOB ([9]; 250 g ai/ha): 30 | phytotoxicity rating ABUTH ([10]; 63 g ai/ha): 70 | phytotoxicity rating ABUTH ([10]; 250 g ai/ha): 95 | Pre-emerge Herbicidal Activity RICE ([11]; 63 g ai/ha): 0 | Pre-emerge Herbicidal Activity RICE ([11]; 250 g ai/ha): 0 | Pre-emerge Herbicidal Activity CORN ([12]; 63 g ai/ha): 0 | Pre-emerge Herbicidal Activity CORN ([12]; 250 g ai/ha): 0 | Pre-emerge Herbicidal Activity DIGSA ([13]; 63 g ai/ha): 0 | Pre-emerge Herbicidal Activity DIGSA ([13]; 250 g ai/ha): 10 | Pre-emerge Herbicidal Activity CHEAL ([14]; 63 g ai/ha): 60 | Pre-emerge Herbicidal Activity CHEAL ([14]; 250 g ai/ha): 100 | Pre-emerge Herbicidal Activity SETVI ([15]; 63 g ai/ha): 0 | Pre-emerge Herbicidal Activity SETVI ([15]; 250 g ai/ha): 50 | Pre-emerge Herbicidal Activity SORHA ([16]; 63 g ai/ha): 0 | Pre-emerge Herbicidal Activity SORHA ([16]; 250 g ai/ha): 0 | Pre-emerge Herbicidal Activity IPOHE ([17]; 63 g ai/ha): 0 | Pre-emerge Herbicidal Activity IPOHE ([17]; 250 g ai/ha): 0 | Pre-emerge Herbicidal Activity ECHCG ([18]; 63 g ai/ha): 0 | Pre-emerge Herbicidal Activity ECHCG ([18]; 250 g ai/ha): 0 | Pre-emerge Herbicidal Activity CASOB ([19]; 63 g ai/ha): 0 | Pre-emerge Herbicidal Activity CASOB ([19]; 250 g ai/ha): 20 | Pre-emerge Herbicidal Activity ABUTH ([20]; 63 g ai/ha): 0 | Pre-emerge Herbicidal Activity ABUTH ([20]; 250 g ai/ha): 60 | Pre-emerge Herbicidal Activity AMARE ([21]; 63 g ai/ha): 30 | Pre-emerge Herbicidal Activity AMARE ([21]; 250 g ai/ha): 100
